Source: US9115093B2, “Substituted bicyclic dihydropyrimidinones and their use as inhibitors of neutrophil elastase activity” (Boehringer Ingelheim International GmbH, priority 2013, dated 2015)

Assays:
[1] = Drug transport across human CACO-2 cells; format: in vitro ADME
Description: Assay for Determination of Drug Transport Across Human CACO-2 Cells
The assay provides information on the potential of a compound to pass the cell membrane, on the extent of oral absorption as well as on whether the compound is actively transported by uptake and/or efflux transporters. For the measurement of permeability across polarized, confluent human cancer colon carcinoma cells 2 (Caco-2) cell monolayers grown on permeable filter supports are used as the in vitro absorption model. Apparent permeability coefficients (PE) of the compounds across the Caco-2 monolayers are measured (pH 7.2, 37° C.) in apical-to-basal (AB) (absorptive) and basal-to-apical (BA) (secretory) transport direction. AB permeability (PEAB) represents drug absorption from the intestine into the blood and BA permeability (PEBA) drug secretion from the blood back into the intestine via both passive permeability as well as active transport mechanisms mediated by efflux and uptake transporters that are expressed on the Caco-2 cells. The compounds are assigned to permeability/absorption classes by comparison of the AB permeabilities with the AB permeabilities of reference compounds with known in vitro permeability and oral absorption in the human. Identical or similar permeabilities in both transport directions indicate passive permeation, vectorial permeability points to additional active transport mechanisms. […] Active transport is concentration-dependently saturable.
Caco-2 cells (1−2*10^5 cells/cm^2 area) are seeded on filter inserts (Costar transwell polycarbonate or PET filters, […] pore size) and cultured (DMEM) for 10 to 25 days. Compounds are dissolved in appropriate solvent (like DMSO, 1-20 mM stock solutions). Stock solutions are diluted with HTP-4 buffer (128.13 mM NaCl, 5.36 mM KCl, 1 mM MgSO4, 1.8 mM CaCl2, 4.17 mM NaHCO3, 1.19 mM Na2HPO4×7H2O, 0.41 mM NaH2PO4×H2O, 15 mM HEPES, 20 mM glucose, pH 7.2) to prepare the transport solutions (typically […] compound, final DMSO <=0.5%). The transport solution (TL) is applied to the apical or basolateral donor side for measuring A-B or B-A permeability (3 filter replicates), respectively. The receiver side contains HTP-4 buffer supplemented with 2% BSA. Samples are collected at the start and end of experiment from the donor and at various time intervals for up to 2 hours also from the receiver side for concentration measurement by LC-MS/MS or scintillation counting. Sampled receiver volumes are is replaced with fresh receiver solution.
The apparent permeability coefficients (PEAB and PEBA) and efflux ratios (PEBA/PEAB) of selected compounds in the Caco-2 drug transport assay described above are listed in Table 17.

neutrophil elastase = target: T1, neutrophil elastase (Homo sapiens, UniProt P08246); assay: Neutrophil elastase inhibitory activity in human plasma; format: biochemical; design: The stimulated blood is centrifuged to generate the neutrophil elastase enriched plasma; from tissue; host or cells: plasma from zymosan-stimulated citrated whole blood of healthy human donors; details: neutrophil elastase enriched human plasma (zymosan-stimulated blood), substrate MeOSuc-Ala-Ala-Pro-Val-AMC
T1 sequence (P08246 30-247 limits assumed): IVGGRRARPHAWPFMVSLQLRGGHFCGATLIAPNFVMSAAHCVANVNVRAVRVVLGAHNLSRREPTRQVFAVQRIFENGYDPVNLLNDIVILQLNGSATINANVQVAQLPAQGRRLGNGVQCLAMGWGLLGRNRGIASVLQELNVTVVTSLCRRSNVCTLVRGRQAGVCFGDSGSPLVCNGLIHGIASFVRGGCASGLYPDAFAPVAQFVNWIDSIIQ
Procedure: Assay for the Determination of Neutrophil Elastase Inhibitory Activity in Human Plasma
Citrated blood from human healthy donors is mixed with zymosan suspension and incubated at room temperature. This leads to the stimulation of neutrophils and the release of neutrophil elastase into the plasma. The stimulated blood is centrifuged to generate the neutrophil elastase enriched plasma.
Preparation of Zymosan Working Solution:
• single 45 ml blood sample is taken into a 50 ml tube containing citrate (3.13%, 5 mL) and the tube is gently inverted 4 times. • Immediately after blood sampling, zymosan working solution (5 mL) is added. • After the addition of zymosan working solution, the tubes are capped, mixed gently and incubated at 22° C. for 15 min on a shaker at 20 rpm. • Make 10 ml aliquots after the incubation time. • Centrifuge the 15 ml tubes at 800 g for […] at 4° C. in a Jouan centrifuge. • Harvest the plasma and make 1-5 ml aliquots. • Store the plasma at −80° C.
Various concentrations of the neutrophil elastase inhibitor are incubated with plasma. Subsequently, the enzyme activity is measured using the fluorogenic substrate MeOSuc-Ala-Ala-Pro-Val-AMC (Bachem Cat. No. 1-1270, substrate concentration: 250 μM, pH 7.5, 25 mM TRIS buffer, 250 mM NaCl) in analogous fashion as described for the human neutrophil assay. A dose response curve is generated to calculate the EC50 of the inhibitor. The analysis of the data is performed by the calculation of the percentage of fluorescence in the presence of the test compound compared to the fluorescence of the vehicle control after subtracting the background fluorescence: An inhibitor of the neutrophil elastase enzyme will give values between 100% control (no inhibition) and 0% control (complete inhibition). The human plasma shift of selected compounds can be calculated using the following equation: Human plasma shift=(EC50 in human plasma assay)/(IC50 in human neutrophil elastase assay) The EC50 values of selected compounds in the human plasma assay described above are listed in Table 14.

SMILES	Papp A→B at 10 nM ([1]; Caco-2 monolayers, apical-to-basal, pH 7.2, 37° C., read-out: PEAB) [×10⁻⁶ cm/s]	Papp B→A at 10 nM ([1]; Caco-2 monolayers, basal-to-apical, pH 7.2, 37° C., read-out: PEBA) [×10⁻⁶ cm/s]	efflux ratio at 10 nM ([1]; pH 7.2, Caco-2, PEBA/PEAB)	EC50 (neutrophil elastase) [nM]
N#Cc1ccc(C2C3=C(CCCC3=O)N(c3cccc(C(F)(F)F)c3)C(=O)N2C(=O)NCCO)cc1 (stereo not shown) [Example 39.3]	12.8	76.5	6	6
CS(=O)(=O)CCNC(=O)N1C(=O)N(c2cccc(C(F)(F)F)c2)C2=C(C(=O)CCC2)C1c1ccc(C#N)cc1 (stereo not shown) [Example 39.19]	–	–	–	9
CC(C)NC(=O)N1C(=O)N(c2cccc(C(F)(F)F)c2)C2=C(C(=O)CCC2)[C@H]1c1ccc(C#N)cc1S(C)(=O)=O [Example 75.3]	–	–	–	1
CS(=O)(=O)c1cc(C#N)ccc1[C@@H]1C2=C(CCCC2=O)N(c2cccc(C(F)(F)F)c2)C(=O)N1C(=O)NCC(F)F [Example 75.7]	–	–	–	1
